# Columns and labels:
# RXRβ = molecular target: T1, RXRβ (UniProt P28704); assay: RXR binding, competition with tritiated retinoid; conditions: read-out: RXR Binding beta
# T1 sequence (P28704 1-520): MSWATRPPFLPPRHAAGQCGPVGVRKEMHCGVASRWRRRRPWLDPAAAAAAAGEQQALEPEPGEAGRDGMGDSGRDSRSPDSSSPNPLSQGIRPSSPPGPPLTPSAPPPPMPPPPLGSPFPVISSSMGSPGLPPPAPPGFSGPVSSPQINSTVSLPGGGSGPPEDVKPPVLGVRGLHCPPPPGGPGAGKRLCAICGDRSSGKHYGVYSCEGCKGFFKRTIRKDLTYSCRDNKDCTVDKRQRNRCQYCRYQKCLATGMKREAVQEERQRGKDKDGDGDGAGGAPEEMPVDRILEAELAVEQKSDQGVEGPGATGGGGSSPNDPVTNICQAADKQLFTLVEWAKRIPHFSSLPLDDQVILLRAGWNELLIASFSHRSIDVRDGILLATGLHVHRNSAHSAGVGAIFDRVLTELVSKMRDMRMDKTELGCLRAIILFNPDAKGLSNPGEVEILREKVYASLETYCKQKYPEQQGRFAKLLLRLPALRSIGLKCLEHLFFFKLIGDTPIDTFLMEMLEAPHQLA
# Source text: (§1) In addition to the cotransfection data, the binding of selected compounds of the present invention to the RAR and RXR receptors was also investigated according to the methodology described in M. F., Boehm, et al., “Synthesis and Structure-Activity Relation-ships of Novel Retinoid X Receptor Selective Retinoids”, 37 J. Med. Chem., 2930 (1994); M. F. Boehm, et al., “Synthesis of High Specific Activity [^3H]-9-cis Retinoic Acid and Its Application for Identifying Retinoids with Unusual Binding Properties”, 37 J. Med. Chem., 408 (1994), and E. A. Allegretto, et al., “Characterization and Comparison of Hormone-Binding and Transactivation Properties of Retinoic Acid and Retinoid X Receptors Expressed in Mammalian Cells and Yeast”, 268 J. Biol. Chem., 22625 (1993), the disclosures of which are herein incorporated by reference.
# (§2) Non-specific binding was defined as that binding remaining in the presence of 500 nM of the appropriate unlabelled compound. At the end of the incubation period, bound ligand was separated from free. The amount of bound tritiated retinoid was determined by liquid scintillation counting of an aliquot (700 μL) of the supernatant fluid or the hydroxylapatite pellet.
# (§3) After correcting for non-specific binding, IC50 values were determined. The IC50 value is defined as the concentration of competing ligand needed to reduce specific binding by 50%. The IC50 value was determined graphically from a log-logit plot of the data. The Ki values were determined by application of the Cheng-Prussof equation to the IC50 values, the labeled ligand concentration and the Kd of the labeled ligand.
# RXRγ = molecular target: T2, RXRγ (UniProt P28705); assay: RXR binding, competition with tritiated retinoid; conditions: read-out: RXR Binding gamma
# T2 sequence (P28705 1-463): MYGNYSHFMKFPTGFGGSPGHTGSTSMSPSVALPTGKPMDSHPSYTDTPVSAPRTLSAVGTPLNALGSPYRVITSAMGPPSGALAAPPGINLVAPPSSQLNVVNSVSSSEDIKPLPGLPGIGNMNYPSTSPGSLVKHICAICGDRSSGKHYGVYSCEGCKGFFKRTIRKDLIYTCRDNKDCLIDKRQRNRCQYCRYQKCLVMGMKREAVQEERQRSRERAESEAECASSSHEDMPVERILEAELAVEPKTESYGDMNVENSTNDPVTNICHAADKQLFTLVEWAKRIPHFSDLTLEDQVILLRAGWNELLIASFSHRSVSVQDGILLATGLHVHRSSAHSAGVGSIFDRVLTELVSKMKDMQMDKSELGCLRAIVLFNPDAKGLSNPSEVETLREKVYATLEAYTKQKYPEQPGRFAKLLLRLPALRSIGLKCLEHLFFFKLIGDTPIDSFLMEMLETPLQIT
# Source text: as §1, §2, §3
# [1] = Metabolic stability in mouse liver microsomes; type: in vitro ADME; conditions: 20 min incubation, 37° C., NADPH
# Procedure: A solution containing 1130 μL of 100 mM sodium phosphate buffer, pH 7.4, 20 μL of a 25 mg/mL CD-1 mouse liver microsomal suspension in 100 mM sodium phosphate buffer, pH 7.4, and 830 μL of a 4 mg/mL NADPH solution in 100 mM sodium phosphate buffer, pH 7.4, was prepared in a glass test tube, mixed on a vortexer, and incubated in a shaking water bath at 37° C. for 3 min. A test compound was dissolved in 10% DMSO/90% methanol to a final concentration of 400 μM, and 20 μL was added to the above solution after the 3 min. incubation. The solution was mixed on a vortexer, and incubated at 37° C. in the shaking water bath. After 0, 5, 10 and 20 min incubation, 75 μL aliquots of the incubation solution were removed in triplicate and each aliquot was added to a 75 μL solution that contained 2 μM of an internal standard in 50% acetonitrile/50% 20 mM ZnSO4 and 20 mM NaOH in water. Samples were mixed on a vortexer, and centrifuged at 10° C. for 25 min at 3000 rpm. The supernatant was separated from the microsomal pellet and analyzed for the test compound by electrospray negative ionization using a Micromass Platform LCZ mass spectrometer equipped with a Shimadzu 10AD VP pump, and Shimadzu 10AD UP autosampler. […] Peak area ratios of the test compound to internal standard at each time point were compared to the 0 min. time point to assess metabolic stability. […]
Compound,Ki (RXRβ),Ki (RXRγ),Metabolic stability (mouse microsomes): Difference from reference compound at 20 min. [1]
"C/C(=C/C(F)=C/C(C)=C/C(=O)O)c1cc(C(C)(C)C)cc(C(C)(C)C)c1OCC(F)F [Example 2, 7-[3,5-Di-tert-butyl-2-(2,2-difluoroethoxy)-phenyl]-5-fluoro-3-methyl-octa-2,4,6-trienoic acid]",15 nM,29 nM,18.300%
"C/C(=C/C=C(F)/C(C)=C/C(=O)O)c1cc(C(C)(C)C)cc(C(C)(C)C)c1OCC(F)F [Example 1, 7-[3,5-di-tert-butyl-2-(2,2-difluoroethoxy)-phenyl]4-fluoro-3-methyl-octa-2,4,6-trienoic acid]",12 nM,21 nM,29.295%
"CCOc1c(\C(=C/C=C/C(C)=C/C(=O)O)C(F)(F)F)cc(C(C)(C)C)cc1C(C)(C)C [Example 5, (2E,4E,6E)-3-methyl-7-(2-ethoxy-3,5-di-tert-butylphenyl)-8,8,8-trifluoroocta-2,4,6-trienoic acid]",52 nM,184 nM,
"CCCCOc1c(\C(C)=C/C=C/C(=C\C(=O)O)C(F)(F)F)cc(C(C)C)cc1C(C)C [Example 4, (2E,4E,6Z)-7-(2-Butoxy-3,5-diisopropylphenyl)-3-trifluoromethyl-octa-2,4,6-trienoic acid]",1080 nM,865 nM,
"CCCCOc1c(\C(C)=C/C=C/C(=C/C(=O)O)C(F)(F)F)cc(C(C)C)cc1C(C)C [Example 3, (2Z,4E,6Z)-7-(2-Butoxy-3,5-diisopropylphenyl)-3-trifluoromethyl-octa-2,4,6-trienoic acid]",203 nM,662 nM,
